According to patent publication US9732111B2, “2′-alkynyl substituted nucleoside derivatives and methods of use thereof for the treatment of viral diseases” (Merck Sharp & Dohme Corp., priority 2012, dated 2017):
Where two headings read alike, the source gives them in different places.

Assays:
[1] = biological target: T1, HCV NS5B RNA-dependent RNA polymerase (1b-BKΔ55) (Hepatitis C virus genotype 1b, UniProt P26663); assay: Inhibition of HCV NS5B polymerase by nucleoside triphosphate analogs (radiolabeled nucleotide incorporation assay); type: biochemical
T1 construct: 5 nM NS5B (1b-BKΔ55) enzyme
Procedure: To measure inhibition of the enzymatic activity of the HCV NS5B RNA-dependent RNA polymerase by the nucleoside triphosphate compounds of the present invention, a radiolabeled nucleotide incorporation assay was used. This assay is a modified version of the assay described in International Publication No. WO2002/057287. Briefly, 50 μL reactions containing 20 mM HEPES (pH 7.3); 7.5 mM DTT; 20 units/mL RNasIN; 1 μM each of ATP, GTP, UTP and CTP; 20 μCi/mL [^33P]-CTP; 10 mM MgCl; 60 mM NaCl; 100 μg/mL BSA; 0.021 μM DCoH heteropolymer RNA template; and 5 nM NS5B (1b-BKΔ55) enzyme are incubated at room temperature for 1 hour. The assay is then terminated by the addition of 500 mM EDTA (50 μL). The reaction mixture is transferred to a Millipore DE81 filter plate and the incorporation of labeled CTP is determined using Packard TopCount. Compound IC50 values can then be calculated from experiments with 10 serial 3-fold dilutions of the inhibitor in duplicate. The intrinsic potency (Ki) of an NTP inhibitor is derived from its NS5B IC50 using the Cheng-Prusoff equation for a competitive inhibitor, as described in Cheng et al., Biochem Pharmacol 22:3099-3108 (1973): Ki=IC50/(1+[S]/Km), where [S]=1 μM, and Km is the concentration of cognate NTP yielding half-maximal enzyme activity in the assay absent exogenous inhibitors.
Data was obtained using this method for the NTP analogs of selected compounds below of the present invention, and is set forth below.

[2] = system: HCV replicon cells (1b-Con1); assay: Replicon activity assay (replicon RNA level by real-time RT-PCR); type: cell-based; conditions: Hepatitis C virus, 72 h, read-out: Replicon (1b) EC50
[3] = system: replicon cells (1b-Con1); assay: Cytotoxicity in replicon cells (MTS assay); conditions: CC50, MTS assay, three days post dosing

T1 sequence (P26663 2420-2955, stated change not applied): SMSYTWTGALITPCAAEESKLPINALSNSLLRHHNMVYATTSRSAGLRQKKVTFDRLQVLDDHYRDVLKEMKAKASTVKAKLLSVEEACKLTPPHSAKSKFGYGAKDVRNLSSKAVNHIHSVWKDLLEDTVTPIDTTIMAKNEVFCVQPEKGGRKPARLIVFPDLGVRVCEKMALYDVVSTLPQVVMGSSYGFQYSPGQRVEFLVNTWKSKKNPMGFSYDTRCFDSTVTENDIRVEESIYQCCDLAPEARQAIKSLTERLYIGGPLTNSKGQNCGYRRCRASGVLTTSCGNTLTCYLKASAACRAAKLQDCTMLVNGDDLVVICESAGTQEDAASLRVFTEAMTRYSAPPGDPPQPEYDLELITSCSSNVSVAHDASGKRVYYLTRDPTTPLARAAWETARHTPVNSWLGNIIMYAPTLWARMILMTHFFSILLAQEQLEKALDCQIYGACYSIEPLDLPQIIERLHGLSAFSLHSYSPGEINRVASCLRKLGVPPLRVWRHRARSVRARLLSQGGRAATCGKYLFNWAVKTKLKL

SMILES | Ki [1] | EC50 ([2]; 1b-Con1 replicon cells, three days post-dosing) | Cytotoxicity [3] | EC50 [2]
CC#C[C@]1(O)[C@H](O)[C@@H](COP(=O)(O)OP(=O)(O)OP(=O)(O)O)O[C@H]1n1ccc(=O)[nH]c1=O | ~12000 nM |  |  | 
C#C[C@@]1(O)[C@@H]2OP(=O)(OC(C)C)OC[C@H]2O[C@H]1n1ccc(=O)[nH]c1=O (single isomer, unassigned) |  | 21000 nM | >100 µM | 
C#C[C@@]1(O)[C@H](O)[C@@H](COP(=O)(N[C@@H](C)C(=O)OC(C)C)Oc2ccccc2)O[C@H]1n1ccc(=O)[nH]c1=O (single isomer, unassigned) |  |  | >100 µM | 90 nM
CC#C[C@@]1(O)[C@H](O)[C@@H](COP(=O)(O)OP(=O)(O)OP(=O)(O)O)O[C@H]1n1ccc(=O)[nH]c1=O | 58 nM |  |  | 
CC(C)OC(=O)[C@H](C)NP(=O)(OC[C@H]1O[C@@H](n2ccc(=O)[nH]c2=O)[C@@](O)(C#CC2CC2)[C@@H]1O)Oc1ccccc1 (stereo partly shown) |  |  | 14.2 µM | 1100 nM
C#C[C@]1(O)[C@H](O)[C@@H](COP(=O)(O)OP(=O)(O)OP(=O)(O)O)O[C@H]1n1ccc(=O)[nH]c1=O | ~19000 nM |  |  | 
CC(C)OC(=O)[C@H](C)NP(=O)(OC[C@H]1O[C@@H](n2ccc(=O)[nH]c2=O)[C@@](O)(C#CC(F)(F)F)[C@@H]1O)Oc1ccccc1 (stereo partly shown) |  |  | 40.7 µM | 25200 nM
CC#C[C@@]1(F)[C@H](O)[C@@H](COP(=O)(N[C@@H](C)C(=O)OC(C)C)Oc2ccccc2)O[C@H]1n1ccc(=O)[nH]c1=O (stereo partly shown) |  |  | 74.4 µM | 45700 nM
C#C[C@@]1(O)[C@H](OC(=O)C(C)C)[C@@H](COP(=O)(N[C@@H](C)C(=O)OC(C)C)Oc2ccccc2)O[C@H]1n1ccc(=O)[nH]c1=O (single isomer, unassigned) |  |  | >100 µM | 100 nM
C#C[C@@]1(O)[C@H](O)[C@@H](COP(=O)(O)OP(=O)(O)OP(=O)(O)O)O[C@H]1n1ccc(=O)[nH]c1=O | 36 nM |  |  | 
CC#C[C@]1(O)[C@H](O)[C@@H](COP(=O)(N[C@@H](C)C(=O)OC(C)C)Oc2ccccc2)O[C@H]1n1ccc(=O)[nH]c1=O (single isomer, unassigned) |  |  | >100 µM | 940 nM
C#C[C@@]1(N)[C@H](O)[C@@H](COP(=O)(O)OP(=O)(O)OP(=O)(O)O)O[C@H]1n1ccc(=O)[nH]c1=O | 1200 nM |  |  | 
